Key:
[1] = molecular target: T1, tau protein in human tau-P301L neurons (Homo sapiens, UniProt P10636, P618L); assay: Dose-effect on tau in tau-P301L neurons (Western blot, total tau TAU5 and P-Tau S396); format: cell-based; details: human tau-P301L neurons (6-week differentiated), 24 hours treatment, 1 μM or 10 μM
T1 construct: degrade tau protein in cultured human differentiated frontotemporal lobar dementia (FTD) neurons; endogenous in cells; host or cells: human differentiated FTD neurons, tau-P301L, 6-week differentiated
T1 sequence (P10636 1-441 isoform P10636-8 P301L): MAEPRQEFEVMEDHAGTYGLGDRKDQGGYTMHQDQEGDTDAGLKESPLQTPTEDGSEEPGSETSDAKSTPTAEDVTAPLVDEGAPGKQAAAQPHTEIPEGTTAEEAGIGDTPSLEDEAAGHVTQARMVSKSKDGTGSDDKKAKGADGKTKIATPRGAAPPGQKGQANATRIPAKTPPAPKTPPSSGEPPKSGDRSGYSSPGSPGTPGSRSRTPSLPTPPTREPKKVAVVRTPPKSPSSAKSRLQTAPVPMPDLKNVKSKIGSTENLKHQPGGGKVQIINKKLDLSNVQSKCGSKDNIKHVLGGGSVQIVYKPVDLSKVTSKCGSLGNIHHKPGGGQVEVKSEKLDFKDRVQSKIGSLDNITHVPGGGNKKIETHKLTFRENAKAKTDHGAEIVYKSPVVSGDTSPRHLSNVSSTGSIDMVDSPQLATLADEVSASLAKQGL
Method: (§1) Assays were performed according to protocols described in Silva et al., eLife, 8:e45457 (2019). Each of the bispecific compounds, along with the control parental scaffold, was evaluated for the ability to degrade tau protein in cultured human differentiated frontotemporal lobar dementia (FTD) neurons.
(§2) For each condition, 1 well of differentiated neuronal cells (6 well-plate) was washed and collected in PBS, pelleted and lysed in radioimmunoprecipitation assay (RIPA) buffer (Boston BioProducts) with 2% SDS (Sigma), protease inhibitors (Roche cOmplete™ Mini tablets), and phosphatase inhibitors (Sigma), followed by sonication in a water sonicator (Bransonic® Ultrasonic Baths, Thomas Scientific) for 5 minutes, and centrifugation at 20,000 g for 15 minutes. Supernatants were transferred to new tubes, total protein concentration was quantified with the Pierce™ BCA Protein Assay Kit (Thermo Scientific™), and SDS-PAGE gels were loaded with 10 μg total protein per well (pre-boiled samples). Western blots were performed with the Novex NuPAGE™ SDS-PAGE Gel System (Invitrogen™). All samples were resolved in 7% Tris-Acetate gels with Tris-Acetate running buffer (Invitrogen™). Blots were probed with antibodies against total tau (TAU5) and phosphorylated tau (Ser396), along with (3-actin as a loading control; followed by corresponding HRP-linked secondary antibodies (Cell Signaling Technology®), and SuperSignal™ West Pico Chemiluminescent Substrate (Thermo Scientific™) detection. Membranes were exposed to autoradiographic film (LabScientific) and films were scanned using an Epson® Perfection V800 Photo Scanner. Protein band intensities (pixel mean intensity) were quantified using Adobe Photoshop® CS5 Histogram function.
(§3) The vehicle alone (DMSO) had no effect on tau. However, varying degrading activity was observed among the specific compounds with overall similar relative levels of degrading activity between tau-A152T neurons and tau-P301L neurons. Bispecific compounds were added at the doses indicated (either 1 μM or 10 μM).

[2] = molecular target: T2, tau protein in human tau-A152T neurons (Homo sapiens, UniProt P10636, A469T); assay: Dose-effect on tau in tau-A152T neurons (Western blot, total tau TAU5 and P-Tau S396); format: cell-based; details: human tau-A152T neurons (6-week differentiated), 24 hours treatment, 1 μM or 10 μM
T2 construct: degrade tau protein in cultured human differentiated frontotemporal lobar dementia (FTD) neurons; endogenous in cells; host or cells: human differentiated FTD neurons, tau-A152T, 6-week differentiated
T2 sequence (P10636 1-441 isoform P10636-8 A152T): as the sequence (P10636 1-441 isoform P10636-8 P301L) above, with A152T, L301P counted along it
Method: as §1, §2, §3

degradation of hyperphosphorylated tau and/or total tau [1] | degradation of hyperphosphorylated tau and/or total tau [2] | SMILES
significantly degraded | significantly degraded | CNc1ccc(/C=C/C=C/c2nc3ccc(OCCCCCCNC(=O)COc4cccc5c4C(=O)N(C4CCC(=O)NC4=O)C5=O)cc3s2)cn1 (stereo not drawn) [compound 2, 2-(2-(2,6-dioxopiperidin-3-yl)-1,3-dioxoisoindolin-4-yloxy)-N-(6-(2-((1E,3E)-4-(6-(methylamino)pyridin-3-yl)buta-1,3-dienyl)benzo[d]thiazol-6-yloxy)hexyl)acetamide]
significantly degraded | significantly degraded | CNc1ccc(/C=C/C=C/c2nc3ccc(OCCOCCOCCNC(=O)COc4cccc5c4C(=O)N(C4CCC(=O)NC4=O)C5=O)cc3s2)cn1 (stereo not drawn) [compound 4, 2-(2-(2,6-dioxopiperidin-3-yl)-1,3-dioxoisoindolin-4-yloxy)-N-(2-(2-(2-(2-((1E,3E)-4-(6-(methylamino)pyridin-3-yl)buta-1,3-dienyl)benzo[d]thiazol-6-yloxy)ethoxy)ethoxy)ethyl)acetamide]

SMILES | degradation of hyperphosphorylated tau and/or total tau [1] | degradation of hyperphosphorylated tau and/or total tau [2]
Nc1cccc2c1CN(C1CCC(=O)NC1=O)C2=O (stereo not drawn) [Lenalidomide, reference compound] | no effect on tau levels | no effect on tau levels

— patent publication US20230133538A1, “TARGETED DEGRADERS OF ABERRANT TAU BASED ON THE PET TRACER PBB3” (DANA-FARBER CANCER INSTITUTE, INC., priority 2020, published 2023)
